In US20030211036A1, “Method and apparatus for monitoring and quantitatively evaluating tumor perfusion” (priority 2002, published 2003):

Tests used:
[1] = cited from earlier work
[2] = HDO concentration in mice plasma by 2H-MRS during and post 2H-saline i.v. infusion (arterial input function); format: in vivo
Description: (§1) Enrichment of the mice's blood with HDO (99.8%) was achieved by applying a slow i.v. infusion of I ml ^2H-saline with a rate of 100 μl/min.
Blood samples ([…]) were drawn from anesthetized mice by retro orbital sinus puncture at 7 time points, 3 mice for each time point, during and post ^2H saline infusion. Samples were collected into separate tubes containing heparin (50 units/ml of blood, Elkins-Sinn Inc., Cherry Hill, N.J.) and were centrifuged at room temperature. The plasma supernatant samples were separated and transferred into 5 mm NMR tubes. ^2H-MR spectra of the plasma samples were recorded at 61.4 MHz on DMX-400 spectrometer (Bruker Analytik, Germany), with a broad-band probe by applying 90° pulses with 4 s repetition time (fully relaxed conditions). Choline-(CD3)3 was added to each plasma sample as an internal reference for concentration.
The 2-compartment kinetic model related the concentration of the tracer in the tissue to tissue's perfusion, as shown by Eq. [3]. Thus, knowledge of the changing arterial tracer concentration over time, termed arterial input function, was required for the numerical solution of the model. In order to obtain qualitative ^2H-images of the tumors and to allow monitoring of HDO uptake with high spatial resolution, a slow i.v. infusion of ^2H-saline, 1 ml in 10 min. was applied. This protocol enriched the content of HDO in the plasma, which is 0.0148% at natural abundance, by 6.8% of HDO that is below toxic levels (13, 14). HDO concentration in the plasma, determined by ^2H-MRS, was monitored during and post-^2H saline infusion (FIG. 1A). During the infusion, HDO accumulated linearly with a correlation coefficient, R^2, of 0.996. The slow decay of HDO in the plasma, post-infusion, approximated linearity with R^2=0.730. Thus, a linear regression analysis of the blood input function Cp(t), was applied in parts, producing two linear functions: (i) during ^2H-saline infusion at t=t0−tinfus, Cp(t)=f(t)=at+b and (ii) post ^2H-saline infusion at t=tinfus−tend, Cp(t)=g(t)=ct+d. […] The plasma concentrations of HDO before and at the end of ^2H-saline infusion were b=0.016 mmol·ml^−1 and d=7.69 mmol·ml^−1, respectively.

[3] = General well-being of the animals under the slow i.v. 2H-saline infusion protocol; format: in vivo, mice; details: i.v. infusion of 1 ml 2H-saline at 100 μl/min
Description: as §1

[4] = system: orthotopic MCF7 human breast cancer tumors; assay: Dynamic 3D 2H-MRI of HDO perfusion with two-compartment model-based analysis per voxel; format: in vivo, CD1-NU mice
Excerpt: A two-compartment model was custom developed for this activity to describe the kinetics of HDO in MCF7 tumors. The model, designed by Yeung et al. (41) to calculate blood brain transfer constant, is a special case of Patlak's blood-brain exchange model (31, 32). In the present work, the two compartments were assigned to the intravascular space with its respective volume fraction vp and the extravascular space, with its effective volume fraction of water ve* which is approximately 70% of the actual extravascular volume ve (ve*=0.7 ve) their respective volume fraction vp and ve* where,
The experimental kinetic data were fitted to Eq. [7] and Eq. [8] with two free parameters: K and vp, using the following substitutions: ve*=1−vp and kb=K/(1−vp). Deuterium signal intensity per pixel in arbitrary units was converted to Cv(t) in mmol/ml using a calibration solution of known deuterium concentration in saline solution ( 9.9 mmol/ml).
The method and apparatus of the present invention were tested experimentally according to the following protocol. Female CD1-NU athymic mice, 6 weeks old, were orthotopically inoculated in the mammary fat pad with MCF7 human breast cancer cells as previously described (33). Tumors were allowed to develop for 4-8 weeks, to sizes ranging between 0.2-2 cm^3 with average size 0.8±0.2 cm^3. For the MRI measurements, mice were anesthetized by exposure to 1% isoflurane (Medeva Pharmaceuticals, Inc., Rochester, N.Y.), in an O2/N2O (3:7) mixture, applied through a nose cone. Approval was obtained for all animal procedures according to the guidelines of the Committee on Animals of the Weizmann Institute of Science.
as §1
In-vivo imaging was accomplished by taking MR images and recording with a 4.7 T Biospec spectrometer (Bruker Analytik, Germany). ^2H and ^1H images were recorded at frequencies of 30.7 MHz and 200 MHz, respectively, and detected by a home-built double-tuned ^2H/^1H surface coil system, 1.5/2.5 cm in diameter. Dynamic ^2H MR images were acquired utilizing a 3-dimensional (3D) gradient echo sequence with the following parameters: echo time (TE)=3 msec, […] (TR)=60 msec, flip angle=45° achieved by an adiabatic pulse (sin/cos), 2 averages, matrix—128×64×16, 2.6 mm slice thickness, an in-plane resolution of 1×2 mm2 and acquisition time of 2.05 min. The sequential acquisition of ^2H-images began with a pre-infusion image and continued throughout ^2H-saline iv. infusion, into the tail vein of the mouse (1 ml/10 min.), and for 30 minutes thereafter. The pre-infusion images were recorded with a tube containing 9.9 mmol/ml HDO in saline solution, attached to the tumor. This served to calibrate the signal intensity to deuterium concentration in units of mmol/ml.
Image analysis was applied on the time evolution of ^2H intensity in a series of coronal images that were reconstructed from dynamic 3D images of the whole tumor acquired before, during and post ^2H-saline infusion. Analysis was performed utilizing a nonlinear least-square fitting algorithm, developed for the purpose of the invention, at a voxel resolution. The computed analysis initially converted ^2H intensity to concentration by referring to the intensity at the pre-infusion image (t=0) in the attached calibration tube that contained a solution of HDO at a concentration of 9.9 mmol/ml. […]

plasma concentration of HDO before 2H-saline infusion (b) ([2]; mice plasma, before infusion): 16000 µM | plasma concentration of HDO at the end of 2H-saline infusion (d) ([2]; mice plasma, end of i.v. infusion, 1 ml in 10 min): 7.69e+06 µM | rate of HDO clearance from plasma post infusion (c) ([2]; mice plasma, post 2H-saline infusion, linear regression g(t)=ct+d): -0.07 mmol/mL/min | rate of HDO accumulation in plasma during infusion (a) ([2]; mice plasma, slow i.v. infusion of 2H-saline, 1 ml in 10 min, linear regression f(t)=at+b): 0.67 mmol/mL/min | enrichment of the content of HDO in the plasma ([2]; slow i.v. infusion of 2H-saline, 1 ml in 10 min, natural abundance 0.0148%): 6.8% | concentration of HDO in the plasma upon infusion with respect to bolus injection ([2]; slow i.v. infusion versus bolus injection of 200 μl): ~6 times higher | K, fit to the HDO perfusion kinetic model ([4]; FIG. 3 single voxel (a), R^2=0.94): 0.0016 min⁻¹ | K, fit to the HDO perfusion kinetic model ([4]; FIG. 3 single voxel (b), R^2=0.94): 0.0005 min⁻¹ | K, fit to the HDO perfusion kinetic model ([4]; FIG. 3 single voxel (c), R^2=0.96): 0.0031 min⁻¹ | range of the perfusion rate per voxel ([4]; all voxels of the parametric maps, seven MCF7 tumors): 4e-06 to 0.0039 min⁻¹ | Perfusion rate, K, Mean, Average ([4]; average of the total population of voxels in the ROIs of all tumors (n = 1278 pixels)): 1.02 ± 0.02 ·10^−3 min^−1
Structure (SMILES): [2H]O[2H] [HDO, deuterated water]
HDO enrichment of body fluids considered nontoxic [1]: up to 10% | adverse effects on the general well-being of the animals [3]: no adverse effects
